Assay results: patent US20070169671A1, “Mold Inhibiting Admixture for a Cementitious Material” (priority 2006, published 2007)

System: mold
Test: Mold growth on inoculated cementitious material samples
Format: cell-based
Details: cementitious materials formed from mixtures including calcium propionate solutions (0.05, 0.1, 0.2% by weight of concrete ingredients); inoculated with a composition of mold; after two weeks in an environment conducive of mold growth
Description: Samples of cementitious materials formed from a cementitious mixture including the calcium propionate solutions were inoculated with a composition of mold and placed in an environment conducive of mold growth.

CCC(=O)[O-].CCC(=O)[O-].[Ca+2] [calcium propionate]
mold propagation on the cementitious materials: no mold propagation was observed
